Assay results from US10392383B2, “3-(1H-benzo[d]imidazol-2-yl)-1H-pyrazolo[4,3-b]pyridines and therapeutic uses thereof” (Samumed, LLC, priority 2015, dated 2019).

How the values were obtained:
[1] = test system: primary human mesenchymal stem cells (hMSCs); experiment: Induction of chondrogenesis in human mesenchymal stem cells (nodule staining with Rhodamine B / Nile Red); assay type: cell-based; settings: for Emax: TGF-β3 (10 ng/mL) as positive control, read-out: Max. Activity as % TGF-β3 activity; for EC50: concentration required to induce 50% levels of chondrogenesis vs TGF-β3, read-out: Conc (nM) of 50% TGF-β3 activity
Method: Representative compounds were screened using primary human mesenchymal stem cells (hMSCs) to determine their ability to induce chondrogenesis (process by which cartilage is developed).
Human Mesenchymal Stem Cell Culture: Primary human mesenchymal stem cells (hMSCs) were purchased from Lonza (Walkersville, Md.) and expanded in Mesenchymal Stem Cell Growth Media (Lonza). Cells between passage 3 and 6 were used for the experiments.
Compound Screening: Each compound was dissolved in DMSO as a 10 mM stock and used to prepare compound source plates. For the 96 well assay, serial dilution (1:3, 6-point dose-response curves from 2700 nM to 10 nM) and compound transfer was performed using the ECHO 550 (Labcyte, Sunnyvale, Calif.) into 96-well clear bottom assay plates (Greiner Bio-One) with appropriate DMSO backfill for a final DMSO concentration of 0.03%. hMSCs were plated at 20,000 cells/well in 250 μL/well Incomplete Chondrogenic Induction Medium (Lonza; DMEM, dexamethasone, ascorbate, insulin-transferrin-selenium [ITS supplement], gentamycin-amphotericin [GA-1000], sodium pyruvate, proline and L-glutamine). TGF-β3 (10 ng/mL) was used as a positive control for differentiation while negative control wells were treated with 75 nL DMSO for normalization and calculating EC50 values. For the 384 well assay, serial dilution (1:3, 8-point dose-response curves from 5000 nM to 2.2 nM) and compound transfer was performed using the ECHO 550 (Labcyte, Sunnyvale, Calif.) into 384-well clear bottom assay plates (Greiner Bio-One) with appropriate DMSO backfill for a final DMSO concentration of 0.03%. hMSCs were plated at 8,000 cells/well in 80 μL/well Incomplete Chondrogenic Induction Medium (Lonza; DMEM, dexamethasone, ascorbate, insulin-transferrin-selenium [ITS supplement], gentamycin-amphotericin [GA-1000], sodium pyruvate, proline and L-glutamine). TGF-β3 (10 ng/mL) was used as a positive control for differentiation while negative control wells were treated with 25 nL DMSO for normalization and calculating EC50 values. Cells were incubated at 37° C. and 5% CO2 for 6 days. To image chondrogenic nodules, the cells were fixed using 4% formaldehyde (Electron Microscopy Sciences), and stained with 2 μg/mL Rhodamine B (Sigma-Aldrich) and 20 μM Nile Red (Sigma-Aldrich) [Johnson K., et. al, A Stem Cell-Based Approach to Cartilage Repair, Science, (2012), 336(6082), 717-721]. The nodules imaged (25 images per well for 96 well plates and 9 images per well for 384 well plates at 10× magnification) by excitation at 531 nm and emission at 625 nm and quantified using the CellInsight CX5 (Thermo Scientific). Area of nodules in each well was normalized to the average of 3 DMSO treated wells on the same plate using Excel (Microsoft Inc.). The normalized averages (fold change over DMSO) of 2 or 3 replicate wells for each compound concentration were calculated. Due to solubility limitations of some of the compounds, curve fitting was incomplete leading to inaccurate EC50 determinations.
Using TGF-β3 as a positive control, the concentration of representative compounds required to induce 50% levels of chondrogenesis is reported. In addition, the maximum activity of each compound and the respective dose that each compound reached maximum chondrogenesis activity is reported.

[2] = test system: Wnt activity (Sp5-Luc reporter, Wnt-responsive promoter) in SW480 colon carcinoma cells; experiment: Wnt activity screening assay: Sp5-Luc reporter gene assay in SW480 cells; assay type: cell-based; settings: Homo sapiens, overnight incubation, 10-point curve starting from 10 μM
Outline: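 SW480 cells stably transduced with an Sp5 promoter (eight TCF/LEF sites)–firefly luciferase lentiviral reporter, plated at 4,000 cells/well in 1% FBS medium with compounds (10-point 1:3 series from 10 μM, 0.1% DMSO) overnight at 37 °C. BrightGlo luminescence normalised to DMSO; EC50 by four-parameter fit, else % inhibition at 10 μM.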

Row | EC50 [1] [nM] | EC50 [2] [nM] | SMILES | Emax [1] [%]
1 | 10 | 160 | Cc1ncc(-c2ccc3[nH]nc(-c4nc5c(-c6cccc(F)c6)cccc5[nH]4)c3n2)n1C [Compound 509, 5-(1,2-Dimethyl-1H-imidazol-5-yl)-3-(4-(3-fluorophenyl)-1H-benzo[d]imidazol-2-yl)-1H-pyrazolo[4,3-b]pyridine] | 112
2 | 30 | 779 | CN(C)c1cncc(-c2ccc3[nH]nc(-c4nc5c(-c6cccc(F)c6)cccc5[nH]4)c3n2)c1 [Compound 7, 5-(3-(4-(3-fluorophenyl)-1H-benzo[d]imidazol-2-yl)-1H-pyrazolo[4,3-b]pyridin-5-yl)-N,N-dimethylpyridin-3-amine] | 53
3 | 30 | 637 | CN(C)Cc1cncc(-c2ccc3[nH]nc(-c4nc5c(-c6cccc(F)c6)cccc5[nH]4)c3n2)c1 [Compound 13, 1-(5-(3-(4-(3-Fluorophenyl)-1H-benzo[d]imidazol-2-yl)-1H-pyrazolo[4,3-b]pyridin-5-yl)pyridin-3-yl)-N,N-dimethylmethanamine] | 85
4 | – | 986 | Cc1ccncc1-c1ccc2[nH]nc(-c3nc4c(-c5ccsc5)cccc4[nH]3)c2n1 [Compound 285, 5-(4-Methylpyridin-3-yl)-3-(4-(thiophen-3-yl)-1H-benzo[d]imidazol-2-yl)-1H-pyrazolo[4,3-b]pyridine] | 32
5 | – | 1340 | Cc1ccncc1-c1ccc2[nH]nc(-c3nc4c(-c5cc(F)cc(CNS(C)(=O)=O)c5)cccc4[nH]3)c2n1 [Compound 481, N-(3-Fluoro-5-(2-(5-(4-methylpyridin-3-yl)-1H-pyrazolo[4,3-b]pyridin-3-yl)-1H-benzo[d]imidazol-4-yl)benzyl)methanesulfonamide] | 36
6 | 900 | 3220 | CCCC(=O)Nc1cncc(-c2ccc3[nH]nc(-c4nc5c(-c6cc(F)cc(CNS(C)(=O)=O)c6)cccc5[nH]4)c3n2)c1 [Compound 493, N-(5-(3-(4-(3-Fluoro-5-(methylsulfonamidomethyl)phenyl)-1H-benzo[d]imidazol-2-yl)-1H-pyrazolo[4,3-b]pyridin-5-yl)pyridin-3-yl)butyramide] | 100

Further lines, the compound ahead of its results:

Row | SMILES | EC50 [1] [nM] | EC50 [2] [nM] | Emax [1] [%]
7 | COc1cncc(-c2ccc3[nH]nc(-c4nc5c(-c6cccc(F)c6)cccc5[nH]4)c3n2)c1 [Compound 516, 3-(4-(3-Fluorophenyl)-1H-benzo[d]imidazol-2-yl)-5-(5-methoxypyridin-3-yl)-1H-pyrazolo[4,3-b]pyridine] | 2 | 923 | 54
8 | Cc1cn(-c2cccc3[nH]c(-c4n[nH]c5ccc(-c6cncc(NC(=O)C(C)(C)C)c6)nc45)nc23)cn1 [Compound 204, N-(5-(3-(4-(4-Methyl-1H-imidazol-1-yl)-1H-benzo[d]imidazol-2-yl)-1H-pyrazolo[4,3-b]pyridin-5-yl)pyridin-3-yl)pivalamide] | 10 | 1240 | 78
9 | CCC(=O)Nc1cncc(-c2ccc3[nH]nc(-c4nc5c(-c6cccs6)cccc5[nH]4)c3n2)c1 [Compound 337, N-(5-(3-(4-(Thiophen-2-yl)-1H-benzo[d]imidazol-2-yl)-1H-pyrazolo[4,3-b]pyridin-5-yl)pyridin-3-yl)propionamide] | – | 3520 | 57
10 | CC(C)CC(=O)Nc1cncc(-c2ccc3[nH]nc(-c4nc5c(-c6cccc(F)c6)cccc5[nH]4)c3n2)c1 [Compound 2, N-(5-(3-(4-(3-Fluorophenyl)-1H-benzo[d]imidazol-2-yl)-1H-pyrazolo[4,3-b]pyridin-5-yl)pyridin-3-yl)-3-methylbutanamide] | 21 | 1160 | 57
11 | CN(C)c1cncc(-c2ccc3[nH]nc(-c4nc5c(-c6cccs6)cccc5[nH]4)c3n2)c1 [Compound 343, N,N-Dimethyl-5-(3-(4-(thiophen-2-yl)-1H-benzo[d]imidazol-2-yl)-1H-pyrazolo[4,3-b]pyridin-5-yl)pyridin-3-amine] | 100 | 1720 | 83
12 | CCCCC(=O)Nc1cncc(-c2ccc3[nH]nc(-c4nc5c(-c6cc(F)cc(NCCN(C)C)c6)cccc5[nH]4)c3n2)c1 [Compound 467, N-(5-(3-(4-(3-((2-(Dimethylamino)ethyl)amino)-5-fluorophenyl)-1H-benzo [d]imidazol-2-yl)-1H-pyrazolo[4,3-b]pyridin-5-yl)pyridin-3-yl)pentanamide] | – | 1300 | 36
13 | CN(C)Cc1cncc(-c2ccc3[nH]nc(-c4nc5c(-c6cccs6)cccc5[nH]4)c3n2)c1 [Compound 349, N,N-dimethyl-1-(5-(3-(4-(thiophen-2-yl)-1H-benzo[d]imidazol-2-yl)-1H-pyrazolo[4,3-b]pyridin-5-yl)pyridin-3-yl)methanamine] | 10 | 4100 | 51
14 | CC(C)Nc1cncc(-c2ccc3[nH]nc(-c4nc5c(-c6cc(F)cc(NCCN(C)C)c6)cccc5[nH]4)c3n2)c1 [Compound 460, N^1-(3-Fluoro-5-(2-(5-(5-(isopropylamino)pyridin-3-yl)-1H-pyrazolo[4,3-b]pyridin-3-yl)-1H-benzo[d]imidazol-4-yl)phenyl)-N^2,N^2-dimethylethane-1,2-diamine] | 10 | 1050 | 62
15 | CCNCc1cncc(-c2ccc3[nH]nc(-c4nc5c(-c6ccoc6)cccc5[nH]4)c3n2)c1 [Compound 314, N-((5-(3-(4-(Furan-3-yl)-1H-benzo[d]imidazol-2-yl)-1H-pyrazolo[4,3-b]pyridin-5-yl)pyridin-3-yl)methyl)ethanamine] | – | 3250 | 32
16 | CN(C)CCOc1cncc(-c2ccc3[nH]nc(-c4nc5c(-c6cccc(F)c6)cccc5[nH]4)c3n2)c1 [Compound 515, 2-((5-(3-(4-(3-Fluorophenyl)-1H-benzo[d]imidazol-2-yl)-1H-pyrazolo[4,3-b]pyridin-5-yl)pyridin-3-yl)oxy)-N,N-dimethylethan-1-amine] | 2 | 4670 | 55
17 | Cc1ccc(-c2cccc3[nH]c(-c4n[nH]c5ccc(-c6cncc(NC(=O)C(C)C)c6)nc45)nc23)s1 [Compound 401, N-(5-(3-(4-(5-Methylthiophen-2-yl)-1H-benzo[d]imidazol-2-yl)-1H-pyrazolo [4,3-b]pyridin-5-yl)pyridin-3-yl)isobutyramide] | 300 | 3130 | 124
18 | CCC(=O)Nc1cncc(-c2ccc3[nH]nc(-c4nc5c(-c6cccc(F)c6)cccc5[nH]4)c3n2)c1 [Compound 1, N-(5-(3-(4-(3-Fluorophenyl)-1H-benzo[d]imidazol-2-yl)-1H-pyrazolo[4,3-b]pyridin-5-yl)pyridin-3-yl)propionamide] | – | 1360 | 99
19 | Cc1ccc(-c2cccc3[nH]c(-c4n[nH]c5ccc(-c6cncc(N)c6)nc45)nc23)s1 [Compound 395, 5-(3-(4-(5-Methylthiophen-2-yl)-1H-benzo[d]imidazol-2-yl)-1H-pyrazolo [4,3-b]pyridin-5-yl)pyridin-3-amine] | 10 | 78 | 88
20 | NC1CN(c2cncc(-c3ccc4[nH]nc(-c5nc6c(-c7cccc(F)c7)cccc6[nH]5)c4n3)n2)C1 [Compound 510, 1-(6-(3-(4-(3-Fluorophenyl)-1H-benzo[d]imidazol-2-yl)-1H-pyrazolo[4,3-b]pyridin-5-yl)pyrazin-2-yl)azetidin-3-amine] | 7 | 3240 | 53
